Test results published in patent US7169785B2, “Methods and compositions of novel triazine compounds” (Reddy US Therapeutics, Inc., priority 2001, dated 2007).

How the values were obtained:
[1] = system: HAEC; assay: Toxicity to endothelial cells (HAEC) when TNF stimulated; type: cell-based
Procedure: (§1) Human aortic endothelial cells (HAEC, Clonetics) were cultured according to manufacturer in growth medium (Clonetics): basal medium containing human epidermal growth factor, hydrocortisone, vascular endothelial growth factor, heparin binding growth factor-B, long R3-insulin-like growth factor-1, ascorbic acid, gentamicin/amphotericin and 5% FBS. These cell were allowed to reach at least 90% confluency before subjected to experimental treatments. Glycated human serum albumin (G-HSA) was from US Biologicals. Tumor necrosis factor α was from R&D Systems.
[…] All treatments, compound-added and controls were carried out in serum free media containing 0.2% albumin. Media from all conditions were collected and used for IL-6 ELISA.

[2] = system: endothelial cells; assay: Toxicity to endothelial cells when AGE stimulated; type: cell-based, human
Procedure: as §1, with “Glycated human serum albumin (G-HSA) was from US Biologicals.” left out
All treatments, compound-added and controls were carried out in serum free media containing 0.2% albumin. Media from all conditions were collected and used for IL-6 ELISA.

[3] = system: IL-6; assay: TNF-α-induced IL-6 production determined by IL-6 ELISA in HAEC; type: cell-based, human; conditions: Homo sapiens, 24 h, read-out: % IL6 production compare to TNF stimulation of IL6 (100%), HAEC, @ 5 uM
[4] = system: cells; assay: Cytotoxicity / lactate dehydrogenase assay and visual observation of cells; type: cell-based

COc1ccc(Nc2nc(Nc3ccc(OC)c(Cl)c3)nc(N(C)C3CCN(C)CC3)n2)cc1Cl [Compound 121]
some toxicity ([1]; HAEC, @ 5 uM): ~20% | cell death in TNF-stimulated IL6 test ([1]; human, 24 h, 10 uM): total cell death | Toxic (AGE-treated) [2]: toxic | activity at 5 µM [3]: 50% | Starts blunting by [4]: 1 µM | Toxic by toxicity assay at [4]: 0.75 µM | rounding by [4]: 5 µM
